From patent publication US8716287B2, “Pharmaceutical compounds” (Sentinel Oncology Limited, priority 2010, dated 2014) come the findings set out here.

The term IC50 denotes the point on the concentration scale where inhibition reaches its midpoint.

“Also recorded” adds a separate entry of the source. Where a name gives a salt, the structure may show the parent alone. Read-outs that look alike come from different tables or passages of the source. A value given as a limit tells only on which side of the number the result lay.

One series deals with Chk-1 kinase (Homo sapiens (Human), UniProt O14757). As to the kind of experiment: Chk-1 kinase inhibiting activity (33P-ATP filter assay, CHKtide substrate). The series is classed as biochemical.
Chk-1 kinase, sequence (O14757 whole entry): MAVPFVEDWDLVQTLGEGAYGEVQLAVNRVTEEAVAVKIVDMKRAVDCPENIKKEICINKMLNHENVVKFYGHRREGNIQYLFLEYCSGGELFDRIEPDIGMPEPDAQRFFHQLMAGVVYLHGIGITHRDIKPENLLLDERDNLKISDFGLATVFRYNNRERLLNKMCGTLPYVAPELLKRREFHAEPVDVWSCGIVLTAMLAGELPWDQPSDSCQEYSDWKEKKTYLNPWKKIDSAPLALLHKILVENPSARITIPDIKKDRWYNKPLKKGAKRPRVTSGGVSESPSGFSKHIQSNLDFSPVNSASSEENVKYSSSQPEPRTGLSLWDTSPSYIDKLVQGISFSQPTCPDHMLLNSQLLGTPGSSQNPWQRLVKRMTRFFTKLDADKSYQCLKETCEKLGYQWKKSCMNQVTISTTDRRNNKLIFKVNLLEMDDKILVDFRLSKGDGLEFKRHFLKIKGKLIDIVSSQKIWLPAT
Another series has as its system HT29 cells. The series can be described thus: Sensitisation of HT29 cells to SN38 (Alamar blue cell growth). As to conditions: HT29 cells. The series is classed as cell-based, human. Background: The colour change of resazurin is a common sign of viable cells or microbes.
The test system of another series is MOLM-13 cells. The series can be described thus: Inhibition of cell growth in MOLM-13 cells (Alamar blue). The series is classed as cell-based. Particulars: Homo sapiens, 72 h incubation. How it is done: (§1) Studies were carried out to test the effect of compounds on the inhibition of cell growth in MOLM-13 and MV4-11 cells.
(§2) The following protocol was used:
(§3) (a) Cells were seeded in 96-well plates at cell densities of 2500/well (MOLM-13) and 10,000/well (MV4-11). Cells were then incubated overnight prior to addition of compound or vehicle control.
(§4) (b) Test compounds were prepared from 10 mM DMSO stocks to give a final concentration range of 10 μM, 3 μM, 1 μM, 0.3 μM, 0.1 μM, […], […] and vehicle control. The DMSO content was constant at 0.1%.
(§5) (c) Test compounds were incubated with the cells for 72 h at 37° C. 5% CO2 in a humidified atmosphere.
(§6) (d) Alamar blue 10% (v/v) was then added and incubated for a further 4 h, and fluorescent product detected using the BMG FLUOstar plate reader.
(§7) (e) Media only background values were subtracted and the data analysed using a 4-parameter logistic equation in GraphPad Prism.
(§8) From the results obtained by following the above protocol, the IC50 values against MOLM-13 and MV4-11 cells of the compounds of Examples 20, 21, 22, 25, 33, 35, 37, 38, 44, 48, 49, 50, 51, 53, 54 and 55 were determined.

The next series has as its system MV4-11 cells. As to the kind of experiment: Inhibition of cell growth in MV4-11 cells (Alamar blue). The series is classed as cell-based. As to conditions: Homo sapiens, 72 h incubation. The protocol:
as §1, §2, §3, §4, §5, §6, §7, §8

The test system of another series is Calu 6. As to the kind of experiment: Potentiation assay with DNA damaging agents in Calu 6 cells. The series is classed as cell-based. As to conditions: Calu 6 human lung adenocarcinoma, Example 4 at 8 μM. The protocol:
as §2
(§9) (a) HT29 cells were seeded in 96-well plates at a concentration of 3000 cells per well and allowed to adhere overnight prior to addition of compound or vehicle control.
(§10) (b) SN38 was prepared from a 10 mM DMSO stock to give a final concentration range of 1 μM, 300 nM, 100 nM, 30 nM, 10 nM, 3 nM, 1 nM, and vehicle control.
(§11) (c) Test compounds were prepared from 10 mM DMSO stocks to typically give a final concentration range of 3 μM, 1 μM, 0.3 μM. 0.1 μM, 0.03 μM and vehicle control. The final DMSO content was 0.4%.
(§12) (d) Test compounds were incubated with the cells for 72 h at 37° C. 5% CO2 in a humidified atmosphere.
(§13) (e) Alamar blue 10% (v/v) was then added and incubated for a further 6 h, and fluorescent product detected using the BMG FLUOstar plate reader.
(§14) (f) Data were analysed using a 4-parameter logistic equation in GraphPad Prism.
(§15) Sensitisation is determined by the enhancement in IC50 of SN38 by the addition of the Chk-1 kinase inhibitor. In the protocol described above, the IC50 for SN-38 is determined the presence of varying doses of the Chk-1 inhibitor. The fold shift represents a decrease in IC50 for SN-38 at a dose of Chk-1 inhibitor that has no effect by itself.
(§16) Using the general protocol set out in Example 67, the compound of Example 4 was tested in potentiation assays against a variety of cell lines in combination with several different DNA damaging anti-cancer agents.

Another series concerns SW620. The series can be described thus: Potentiation assay with DNA damaging agents in SW620 cells. Format: cell-based. Particulars: SW620 human colon adenocarcinoma. The protocol: as §2, §9, §10, §11, §12, §13, §14, §15, §16
Another series deals with HT29. The series can be described thus: Potentiation assay with DNA damaging agents in HT29 cells. The series is classed as cell-based. Particulars: HT29 human colon cancer; gemcitabine; Example 4 at 4 μM. The protocol:
as §2, §9, §10, §11, §12, §13, §14
Sensitisation is determined by the enhancement in IC50 of SN38 by the addition of the Chk-1 kinase inhibitor. In the protocol described above, the IC50 for SN-38 is determined the presence of varying doses of the Chk-1 inhibitor. The fold shift represents a decrease in IC50 for SN-38 at a dose of Chk-1 inhibitor that has no effect by itself. […]

Where [1] appears, read: Chk-1 kinase, Table 3, read-out: IC50.
The mark [2] stands for this setting: ranges given, read-out: IC50 values against Chk-1 kinase.

In the case of `CN1CCN(c2cccc(CNCCc3ccc(NC(=O)Nc4cnc(C#N)cn4)cc3Cl)c2)CC1` [Example 38, 1-(3-Chloro-4-{2-[3-(4-methyl-piperazin-1-yl)-benzylamino]-ethyl}-phenyl)-3-(5-cyano-pyrazin-2-yl)-urea], the IC50 on Chk-1 kinase (setting [1]) is 9.1 nM; at Chk-1 kinase (setting [2]), < 10 nM; in the series with MOLM-13 cells, 610 nM; in the series with MV4-11 cells, 2440 nM. For the same compound, the “fold shift in the IC50 value of SN38” value in the series on HT29 cells (test compound at 3 μM) is “three”.

Regarding `COc1cc(CNCc2ccccc2)ccc1NC(=O)Nc1cnc(C#N)cn1` [Example 22, 1-[4-(Benzylamino-methyl)-2-methoxy-phenyl]-3-(5-cyano-pyrazin-2-yl)-urea], the half-maximal inhibitory concentration (IC50) was 99 nM at Chk-1 kinase (setting [1]), 10 to 100 nM on Chk-1 kinase (setting [2]), > 3000 nM in the series on MOLM-13 cells and > 3000 nM in the series with MV4-11 cells. Also, the “fold shift in the IC50 value of SN38” value in the series on HT29 cells (test compound at 3 μM) is listed as “three; also recorded: greater than ten”.

As to `N#Cc1cnc(NC(=O)Nc2ccc(CCNCc3ccc(F)cc3)c(Cl)c2)cn1` [Example 4, 1-{3-Chloro-4-[2-(4-fluoro-benzylamino)-ethyl]-phenyl}-3-(5-cyano-pyrazin-2-yl)-urea], the IC50 at Chk-1 kinase (setting [1]) is 15 nM; on Chk-1 kinase (setting [2]), 10 to 100 nM. The “fold shift in the IC50 value of SN38” value in the series on HT29 cells (test compound at 1.25 μM) is “three”. In addition, the Potentiation factor with Calu 6 (SN-38) is 3.7; in the series on Calu 6 (etoposide), 7.6; in the series on Calu 6 (gemcitabine), 6.1; in the series with SW620 (SN-38, Example 4 at 4 μM), 16.4; in the series on SW620 (etoposide, Example 4 at 1 μM) it was 2.6; in the series with SW620 (gemcitabine, Example 4 at 2 μM) it was 2.5. In addition, the Potentiation factor in the series on HT29 came to 18.

`COc1cc(OCCNCc2ccc(F)cc2F)ccc1NC(=O)Nc1cnc(C#N)cn1` [Example 33, 1-(5-Cyano-pyrazin-2-yl)-3-{4-[2-(2,4-difluoro-benzylamino)-ethoxy]-2-methoxy-phenyl}-urea]: the IC50 is 3 nM at Chk-1 kinase (setting [1]), < 10 nM at Chk-1 kinase (setting [2]), 1300 nM in the series with MOLM-13 cells and 1290 nM with MV4-11 cells. Also, the “fold shift in the IC50 value of SN38” value in the series on HT29 cells (test compound at 3 μM) is given as “three”.

`COc1ccc(CNCCc2cc(OC)c(NC(=O)Nc3cnc(C#N)cn3)cc2Cl)cc1` [Example 49, 1-{5-Chloro-2-methoxy-4-[2-(4-methoxy-benzylamino)-ethyl]-phenyl}-3-(5-cyano-pyrazin-2-yl)-urea hydrochloride]: the IC50 was 0.28 nM on Chk-1 kinase (setting [1]), < 10 nM at Chk-1 kinase (setting [2]), 60 nM with MOLM-13 cells and 120 nM in the series on MV4-11 cells. Also, the figures for the “fold shift in the IC50 value of SN38” value in the series on HT29 cells (test compound at 1 μM) and in the series on HT29 cells (test compound at 3 μM) were “two” and “greater than ten”, respectively.

As for `COc1cccc(CNCCc2cc(OC)c(NC(=O)Nc3cnc(C#N)cn3)cc2Cl)c1` [Example 48, 1-{5-Chloro-2-methoxy-4-[2-(3-methoxy-benzylamino)-ethyl]-phenyl}-3-(5-cyano-pyrazin-2-yl)-urea hydrochloride], the IC50 at Chk-1 kinase (setting [1]) is 0.47 nM; on Chk-1 kinase (setting [2]) it was < 10 nM; in the series on MOLM-13 cells it was 100 nM; with MV4-11 cells, 190 nM. Besides, the “fold shift in the IC50 value of SN38” value with HT29 cells (test compound at 1 μM) is listed as “two”; in the series on HT29 cells (test compound at 3 μM), “greater than ten”.
